Values quoted from earlier work, collected in patent US20070254015A1, “Sanitizing surfaces” (Searete LLC, a limited liability corporation of the State …, priority 2006, published 2007).
Read-outs that look alike come from different tables or passages of the source.

Columns and labels:
[1] = tested on: Human Immunodeficiency Virus (HIV-1)
[2] = Table I, liquid sanitizing agents
[3] = Table II, liquid sanitizing agents for gloves

## CCO [Ethyl Alcohol]
[1]; [2]
  Known Minimum Concentration by Volume for Immediately Sterilizing Human Immunodeficiency Virus (HIV-1): 50%
[1]; [3]
  Known Minimum Concentration by Volume for Immediately Sterilizing Human Immunodeficiency Virus (HIV-1): 50%
Hepatitis B Virus; [2]
  Known Minimum Concentration by Volume for Immediately Sterilizing Hepatitis B Virus: 80%
Hepatitis B Virus; [3]
  Known Minimum Concentration by Volume for Immediately Sterilizing Hepatitis B Virus: 80%

## OO [Hydrogen Peroxide]
[1]; [2]
  Known Minimum Concentration by Volume for Immediately Sterilizing Human Immunodeficiency Virus (HIV-1): 0.3%
[1]; [3]
  Known Minimum Concentration by Volume for Immediately Sterilizing Human Immunodeficiency Virus (HIV-1): 0.3%

## CC(C)O [Isopropyl Alcohol]
[1]; [2]
  Known Minimum Concentration by Volume for Immediately Sterilizing Human Immunodeficiency Virus (HIV-1): 30%
[1]; [3]
  Known Minimum Concentration by Volume for Immediately Sterilizing Human Immunodeficiency Virus (HIV-1): 30%
Hepatitis B Virus; [2]
  Known Minimum Concentration by Volume for Immediately Sterilizing Hepatitis B Virus: 70%
Hepatitis B Virus; [3]
  Known Minimum Concentration by Volume for Immediately Sterilizing Hepatitis B Virus: 70%

## ethylphenyl-polyethylene glycol [NP-40]
[1]; [2]
  Known Minimum Concentration by Volume for Immediately Sterilizing Human Immunodeficiency Virus (HIV-1): 1%
[1]; [3]
  Known Minimum Concentration by Volume for Immediately Sterilizing Human Immunodeficiency Virus (HIV-1): 1%
